Measurements taken from patent publication US20040076989A1, “Synaptic transmission assay” (priority 2000, published 2004).
“Also recorded” adds a separate entry of the source.

Experiments:
zif268 mRNA expression = assay: zif268 mRNA assay (Northern blot) in cultured dissociated hippocampal neurons; type: cell-based; conditions: added to induction medium
Procedure: The peak in zif268 expression after 30 min established the optimal delay for mRNA-based assays. Similar optimisation of protein-based immunohistochemical assays indicates an optimum 2 h post-exposure delay.
Zif268 mRNA assays were carried out as in Example 2, with cells exposed to ACSF control, to induction medium, or to induction medium with the addition of […] (an inhibitor of MAPK kinase) (FIG. 15) or with the addition of a mixture of the calcium channel blocker cadmium and the glutamate receptor antagonists AP5 and CNQX (FIG. 16).

[1] = system: neuronal zif268 expression; assay: zif268 immunocytochemical assay (zif268/NeuN double-labelled neurons) in dissociated hippocampal neuron culture; type: cell-based, Sprague-Dawley rat; conditions: added to induction medium, 0.2 μM each, 10 min exposure; listed as Carbachol
Procedure: Hippocampal neurons were prepared from late embryonic or 1st postnatal day Sprague-Dawley rates, and grown in dissociated cell culture in microtitre plates. After 7-21 days in vitro, serum-containing medium was replaced with serum-free medium for 24 h. This medium was then replaced with ACSF or with induction medium for 10 minutes; these solutions were then replaced with serum-free medium. After 1 hour, cells were fixed by replacement of serum-free medium with phosphate-buffered saline containing 4% paraformaldehyde. Immunolabelling was then carried out with rabbit antiserum against zif268 and mouse antibodies against the neuron-specific antigen NeuN. After washing, bound antibodies were visualised by incubation with Alexa488-labelled anti-rabbit IgG and Cy3-labelled anti-mouse IgG (FIG. 12 top).
An immunocytochemical assay was carried out as in Example 3, with cells exposed to ACSF, to induction medium, to induction medium with the addition of carbachol and isoproterenol (0.2 μM each) or to induction medium with the addition of carbachol only (0.2 μM).

Structure (SMILES)	effect on chemically-induced zif268 mRNA expression (zif268 mRNA expression)	effect on chemically induced increase in neuronal zif268 immunoreactivity [1]
COc1cccc(-c2cc(=O)c3ccccc3o2)c1N [PD98959]	significantly reduced; also recorded: inhibits	–
C[N+](C)(C)CCOC(N)=O [carbachol]	–	no effect
